The values below come from patent US11426361B2, “Eye drops for treatment of irritation not due to infection” (Resdevco Research and Development Co. Ltd., priority 2017, dated 2022).

For the experiment, the system named is human corneal epithelial cells (HCEC cell line). The experiment can be described thus: Example 5: expression of barrier genes (Involucrin, Occludin, Filaggrin, Cadherin-1) at mRNA level by Q-PCR. It is filed as cell-based. The conditions noted are these: three hours. The procedure: An experiment was performed to investigate the effect in vitro of a solution containing glycerol on human corneal epithelial cells, in particular, on the expression of barrier genes Involucrin, Occludin, Filaggrin, and Cadherin-1.
Immortalized human corneal epithelial cells (HCEC cell line) cultured in DMEM/F12 with 5% FBS and 10 ng/ml human epidermal growth factor (Invitrogen—Gibco). The cells were treated for three hours with one of the following three compositions: (a) an aqueous solution of glycerol (0.27% w/v); (b) 20 μg/ml Polyinosinic:polycytidylic acid (p(I:C), an activator of TLR3 to induce inflammation; and (c) a combination of the two previous compositions.
The expression of the barrier genes was determined at the mRNA level by use of quantitative “real-time” PCR (Q-PCR). Q-PCR was performed on an ABI Prism 7000 sequence detection system (Applied Biosystems, Foster City, Calif.) using the 5′ nuclease assay. Total RNA was isolated using TRIzol (Invitrogen) and 3 μg of total RNA were reverse-transcribed into cDNA by using 15 U of AMV reverse transcriptase (Promega, Madison, Wis., USA) and 0.025 μg/μl random primers (Promega). PCR amplification was performed by using the TaqMan primers and probes. As internal controls, transcripts of cyclophilin A (PPIA) were determined.

Consider `OCC(O)CO` [glycerol], for which the “effect on barrier-impairing actions of p(I:C) (barrier gene expression)” value (co-incubation with glycerol 0.27% during p(I:C) 20 μg/ml challenge) is recorded as “significantly prevented the barrier-impairing actions of the TLR3 agonist”.
In the case of “Polyinosinic:polycytidylic acid [p(I:C)]”, the “expressions of Involucrin, Occludin, Filaggrin, and Cadherin-1” value (p(I:C) 20 μg/ml alone) is “markedly decreased”.
